From patent US6544994B2, “Pharmaceutical preparation for treating or preventing cardiovascular or neurological disorders by modulating of the activity of nitric oxide synthase” (Eprov AG, priority 2000, dated 2003)
Like-named read-outs stand apart in the source and are kept apart here. Each block holds one compound with its values, some of them ahead of it.

Legend:
[1] = Competitive superoxide trapping (CST) with DEPMPO in HX/XO system, EPR; format: biochemical; conditions: for k/kd, reaction rate with superoxide relative to reference spin trap DEPMPO / k, reaction rate with superoxide: pH 7.4, 37° C.; for k, reaction rate with superoxide: based on kd=80 (Ms)^−1; for superoxide scavenging, times less potent/slower than ascorbic acid: relative to ascorbic acid
Protocol: The EPR spectra were recorded at 37° C. on a modified Bruker ESP 300. Spin trap experiments were performed with both HX/XO and eNOS. For HX/XO the solution contained 0.5 mM hypoxanthine, 12.5 mU/ml xanthine oxidase and 50 mM DEPMPO in phosphate buffer (pH 7.4). The eNOS assay contained 250 nM eNOS dimers (0.065 mg protein/ml), 0.5 mM NADPH, 10 μM L-arginine, 1 mM CaCl2, 300 U/ml catmodulin and 50 mM DEPMPO in phosphate buffer (pH 7.4).
The reaction rates with superoxide are given by k for the tested substance and kd for the reference compound DEPMPO respectively.

xanthine oxidase (XO) = xanthine oxidase (XO) (Homo sapiens, UniProt P47989)
Description: Assessment of urate levels (assessed with a uricase-hydrogen peroxide assay) is a standard method to determine enzymatic activity of XO. However, reductive substance, like vitamin C or NUHF, are known to interfere with the urate determination.

[2] = test system: microvascular endothelial bEND3 cells; test: NO production by endothelial cells, nitrite content in supernatant; format: cell-based; conditions: preincubation 24 hours; for acetylcholine-induced nitrite production: 5-methyltetrahydrofolic acid 1 and 10 μM, sepiapterin 100 μM, p<0.05 vs. saline
Protocol: The NO production by endothelial cells was assessed by quantification of the nitrite content in the supernatant with a commercially available fluorimetric kit (Cayman Chemicals). Acetylcholine-induced NO production is presented as the difference between stimulated minus the unstimulated nitrite content.

eNOS [3] = molecular target: T1, eNOS (Bos taurus, UniProt P29473); test: NO-production by eNOS, [3H]arginine to [3H]citrulline conversion; format: biochemical, bovine; design: made in house; host or cells: E. coli; conditions: 100 μM final
Protocol: 5-methyl-(6 S)-tetrahydrofolic acid, and its stereoisomer, 5-methyl-(6R)-tetrahydrofolic acid were used in purities>99.8%. The spin trap, 5-diethoxy-phosphoryl-5-methyl-1-pyrroline-N-oxide (DEPMPO) and all other used chemicals are commercially available.
NOS activity was determined by quantifying the conversion of L-[2,3,4.5-^3H]arginine into L-[2,3,4,5-^3H]-citrulline. […] All measurements were performed in triplicate. After correction for nonspecific activity, eNOS activity was calculated from the percent conversion of [^3H]-arginine into [^3H]-citrulline and expressed as nmoles per mg protein per min.

eNOS [4] = molecular target: T1, eNOS; test: Superoxide production by eNOS, DEPMPO spin trap EPR
[5] = cited from earlier work
[6] = cited from earlier work; remark: listed apart in the source
[7] = pterin-repleted eNOS, p<0.05 vs. BH4 alone

Sequence of xanthine oxidase (XO) (P47989 whole entry, species assumed): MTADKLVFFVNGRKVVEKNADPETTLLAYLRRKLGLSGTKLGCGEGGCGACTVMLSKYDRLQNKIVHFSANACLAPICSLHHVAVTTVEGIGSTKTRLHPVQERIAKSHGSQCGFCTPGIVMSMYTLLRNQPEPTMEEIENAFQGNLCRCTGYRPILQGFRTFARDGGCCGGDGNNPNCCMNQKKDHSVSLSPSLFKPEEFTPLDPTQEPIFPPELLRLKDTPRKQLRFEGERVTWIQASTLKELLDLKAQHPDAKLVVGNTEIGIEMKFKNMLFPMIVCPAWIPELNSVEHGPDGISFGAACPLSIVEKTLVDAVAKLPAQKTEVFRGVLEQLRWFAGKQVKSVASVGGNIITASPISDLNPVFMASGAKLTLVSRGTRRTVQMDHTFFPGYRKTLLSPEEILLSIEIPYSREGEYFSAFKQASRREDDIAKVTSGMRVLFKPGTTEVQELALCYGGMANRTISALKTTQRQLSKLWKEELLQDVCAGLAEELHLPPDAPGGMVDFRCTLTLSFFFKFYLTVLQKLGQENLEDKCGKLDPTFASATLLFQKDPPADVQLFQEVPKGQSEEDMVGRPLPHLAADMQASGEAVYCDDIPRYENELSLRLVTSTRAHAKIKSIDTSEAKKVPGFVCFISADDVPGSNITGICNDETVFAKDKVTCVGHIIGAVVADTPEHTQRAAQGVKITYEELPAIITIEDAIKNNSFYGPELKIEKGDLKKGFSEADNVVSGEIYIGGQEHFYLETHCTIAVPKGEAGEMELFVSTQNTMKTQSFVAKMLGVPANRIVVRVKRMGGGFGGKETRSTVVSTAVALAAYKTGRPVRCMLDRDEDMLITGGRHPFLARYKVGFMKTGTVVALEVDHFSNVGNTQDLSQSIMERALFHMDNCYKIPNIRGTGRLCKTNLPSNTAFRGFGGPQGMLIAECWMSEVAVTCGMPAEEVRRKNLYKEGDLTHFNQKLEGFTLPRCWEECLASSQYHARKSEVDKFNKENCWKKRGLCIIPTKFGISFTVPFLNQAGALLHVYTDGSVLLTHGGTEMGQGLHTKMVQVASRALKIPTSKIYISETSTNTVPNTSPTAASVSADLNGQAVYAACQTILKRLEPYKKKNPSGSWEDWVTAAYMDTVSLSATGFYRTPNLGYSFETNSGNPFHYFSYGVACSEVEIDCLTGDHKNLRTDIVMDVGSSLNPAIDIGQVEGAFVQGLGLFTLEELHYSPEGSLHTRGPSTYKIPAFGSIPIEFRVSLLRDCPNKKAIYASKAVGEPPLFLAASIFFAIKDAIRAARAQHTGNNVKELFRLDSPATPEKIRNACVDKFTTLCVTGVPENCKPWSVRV

- k/kd, reaction rate with superoxide relative to reference spin trap DEPMPO ([1]; HX/XO): about 175
- k/kd, reaction rate with superoxide relative to reference spin trap DEPMPO ([1]; HX/XO, listed as L-MTHF): 150
- urate level after 60 minutes of incubation (xanthine oxidase (XO); 50 μM added at the beginning of the incubation, basal 128±20 μM): 48.7 ± 1.7 µM
- urate level after 60 minutes of incubation (xanthine oxidase (XO); 50 μM added at the end of the incubation, just prior to urate assessment): 49.9 ± 1.9 µM
- NO production (eNOS [3]; pterin-free eNOS): no significant effect on NO production
- NO production (eNOS [3]; [7]): significant increase in NO production
SMILES: CN1c2c(nc(N)[nH]c2=O)NC[C@@H]1CNc1ccc(C(=O)N[C@@H](CCC(=O)O)C(=O)O)cc1 [5-methyl-(6 S)-tetrahydrofolic acid]
- k, reaction rate with superoxide [1]: 12000 M/s
- superoxide scavenging, times less potent/slower than ascorbic acid [1]: about 20 fold
- acetylcholine-induced nitrite production [2]: significant-further increase in acetylcholine-induced nitrite production
- effect on rate of superoxide production by pterin-free eNOS (eNOS [4]; pterin-free eNOS): does not affect the rate of superoxide production
- radical adduct formation (eNOS [4]; pterin-free eNOS, 25 μM): does not cause significant changes in radical adduct formation
- rate of DEPMPO adduct formation (eNOS [4]; pterin-repleted eNOS): very strong reduction in the rate of DEPMPO adduct formation

- k/kd, reaction rate with superoxide relative to reference spin trap DEPMPO ([1]; HX/XO): about 175
- k/kd, reaction rate with superoxide relative to reference spin trap DEPMPO ([1]; HX/XO, listed as D-MTHF): 150
- NO production (eNOS [3]; pterin-free eNOS): no significant effect on NO production
- NO production (eNOS [3]; [7]): significant increase in NO production
SMILES: CN1c2c(nc(N)[nH]c2=O)NC[C@H]1CNc1ccc(C(=O)N[C@@H](CCC(=O)O)C(=O)O)cc1 [5-methyl-(6R)-tetrahydrofolic acid]
- k, reaction rate with superoxide [1]: 12000 M/s
- superoxide scavenging, times less potent/slower than ascorbic acid [1]: about 20 fold
- effect on rate of superoxide production by pterin-free eNOS (eNOS [4]; pterin-free eNOS): does not affect the rate of superoxide production
- rate of DEPMPO adduct formation (eNOS [4]; pterin-repleted eNOS): very strong reduction in the rate of DEPMPO adduct formation

SMILES: CN1c2c(nc(N)[nH]c2=O)NCC1CNc1ccc(C(=O)N[C@@H](CCC(=O)O)C(=O)O)cc1 (stereo partly shown) [5-methyltetrahydrofolic acid, 5-methyl-5,6,7,8-tetrahydrofolic acid]
- superoxide scavenging, times less potent/slower than ascorbic acid [1]: about 20 fold
- effect on rate of urate production by XO (xanthine oxidase (XO)): does not affect the rate of urate production
- nitrite release ([2]; unstimulated endothelial cells): did not affect nitrite release
- systemic plasma concentrations of 5-methyltetrahydrofolic acid ([5]; intra-arterial infusion): 250 nM
- amount of superoxide adducts (eNOS [4]; partially BH4-repleted eNOS, 25 μM): substantial reduction in the amount of superoxide adducts
- factor by which superoxide production by eNOS is reduced (eNOS [4]; pterin-repleted eNOS, 50 μM, estimated from figure): 2 fold

SMILES: N=C(N)NCCC[C@H](N)C(=O)O [arginine, L-arginine]
- k/kd, reaction rate with superoxide relative to reference spin trap DEPMPO ([1]; HX/XO): < 10^−2
- effect on formation of DEPMPO adducts ([1]; HX/XO, up to 100 mM): did not affect the formation of DEPMPO adducts
- k, reaction rate with superoxide [1]: neglibile

- k/kd, reaction rate with superoxide relative to reference spin trap DEPMPO ([1]; HX/XO): 4400
SMILES: O=C1O[C@H]([C@@H](O)CO)C(O)=C1O [ascorbic acid, reference compound]
- k, reaction rate with superoxide [1]: 350000 M/s
- k, reaction rate with superoxide, literature value [6]: 270000 M/s

SMILES: Nc1nc2ncc(CNc3ccc(C(=O)N[C@@H](CCC(=O)O)C(=O)O)cc3)nc2c(=O)[nH]1 [folic acid, reference compound]
- systemic plasma concentrations of 5-methyltetrahydrofolic acid ([5]; standard oral suppletion of folic acid 5 mg p.o.): ≤ 150 nM

SMILES: C[C@H](O)C(=O)C1=Nc2c(nc(N)[nH]c2=O)NC1 [sepiapterin, reference compound]
- acetylcholine-induced nitrite production [2]: significant-further increase in acetylcholine-induced nitrite production
